Experimental data from patent US10835533B2, “1 -((3S,4R)-4-(3-fluorophenyl)-1-(2-methoxyethyl)pyrrolidin-3-yl)-3-(4-methyl-3-(2-methylpyrimidin-5-yl)-1-phenyl-1H-pyrazol-5-yl)urea as a TrkA kinase inhibitor” (Array BioPharma Inc., priority 2014, dated 2020).

Key:
Test in all cases: KinaseProfiler kinase profiling
Type in all cases: biochemical
Settings in all cases: 10 μM, ATP near Km
Rse = target: T1, Rse (Homo sapiens, UniProt Q06418)
T1 construct: purchased Millipore, Inc. (KinaseProfiler service)
Description: (§1) Compound 1 was tested for off-target kinase activity at a concentration of 10 μM by Millipore, Inc. in their KinaseProfiler™ service against all the kinases available in their full kinase panel. Compound 1 was run in duplicate at a concentration of ATP near the Km for each individual kinase according to Millipore's specifications. Data are reported as percent of control (POC) and are the average of the two replicates.

Plk2 = target: T2, Plk2 (Homo sapiens, UniProt Q9NYY3)
T2 construct: purchased Millipore, Inc. (KinaseProfiler service)
Description: as §1

MST1 = target: T3, MST1 (Homo sapiens, UniProt Q13043)
T3 construct: purchased Millipore, Inc. (KinaseProfiler service)
T3 sequence (Q13043 whole entry): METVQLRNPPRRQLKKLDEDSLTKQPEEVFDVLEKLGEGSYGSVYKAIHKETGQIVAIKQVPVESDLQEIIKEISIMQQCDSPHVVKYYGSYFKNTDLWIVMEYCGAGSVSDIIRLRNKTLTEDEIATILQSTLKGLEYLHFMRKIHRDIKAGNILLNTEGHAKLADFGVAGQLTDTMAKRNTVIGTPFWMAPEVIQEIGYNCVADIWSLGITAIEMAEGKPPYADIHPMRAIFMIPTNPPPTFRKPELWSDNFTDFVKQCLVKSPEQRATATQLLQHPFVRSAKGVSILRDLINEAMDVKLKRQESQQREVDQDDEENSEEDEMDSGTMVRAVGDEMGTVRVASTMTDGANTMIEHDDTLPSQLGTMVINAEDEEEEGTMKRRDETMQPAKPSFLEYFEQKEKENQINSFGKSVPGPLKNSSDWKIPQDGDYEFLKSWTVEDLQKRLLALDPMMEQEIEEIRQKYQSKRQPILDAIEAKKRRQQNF
Description: as §1

TBK1 = target: T4, TBK1 (Homo sapiens, UniProt Q9UHD2)
T4 construct: purchased Millipore, Inc. (KinaseProfiler service)
Description: as §1

TSSK2 = target: T5, TSSK2 (Homo sapiens, UniProt Q96PF2)
T5 construct: purchased Millipore, Inc. (KinaseProfiler service)
Description: as §1

KDR = target: T6, KDR (Homo sapiens, UniProt P35968)
T6 construct: purchased Millipore, Inc. (KinaseProfiler service)
Description: as §1

DCAMKL2 = target: T7, DCAMKL2 (Homo sapiens, UniProt Q8N568)
T7 construct: purchased Millipore, Inc. (KinaseProfiler service)
Description: as §1

MRCKalpha = target: T8, MRCKalpha (Homo sapiens, UniProt Q5VT25)
T8 construct: purchased Millipore, Inc. (KinaseProfiler service)
Description: as §1

BrSK2 = target: T9, BrSK2 (Homo sapiens, UniProt Q8IWQ3)
T9 construct: purchased Millipore, Inc. (KinaseProfiler service)
Description: as §1

BTK = target: T10, BTK (Homo sapiens, UniProt Q06187)
T10 construct: purchased Millipore, Inc. (KinaseProfiler service)
Description: as §1

p38delta = target: T11, p38delta (Homo sapiens, UniProt O15264)
T11 construct: purchased Millipore, Inc. (KinaseProfiler service)
Description: as §1

TAO2 = target: T12, TAO2 (Homo sapiens, UniProt Q9UL54)
T12 construct: purchased Millipore, Inc. (KinaseProfiler service)
Description: as §1

Ros = target: T13, Ros (Homo sapiens, UniProt P08922)
T13 construct: purchased Millipore, Inc. (KinaseProfiler service)
Description: as §1

JNK2alpha2 = target: T14, JNK2alpha2 (Homo sapiens, UniProt P45984)
T14 construct: purchased Millipore, Inc. (KinaseProfiler service)
Description: as §1

DAPK1 = target: T15, DAPK1 (Homo sapiens, UniProt P53355)
T15 construct: purchased Millipore, Inc. (KinaseProfiler service)
Description: as §1

PASK = target: T16, PASK (Homo sapiens, UniProt Q96RG2)
T16 construct: purchased Millipore, Inc. (KinaseProfiler service)
Description: as §1

TLK2 = target: T17, TLK2 (Homo sapiens, UniProt Q86UE8)
T17 construct: purchased Millipore, Inc. (KinaseProfiler service)
Description: as §1

Bmx = target: T18, Bmx (Homo sapiens, UniProt P51813)
T18 construct: purchased Millipore, Inc. (KinaseProfiler service)
Description: as §1

CDK2/cyclinA = target: T19, CDK2/cyclinA (Homo sapiens, UniProt P24941)
T19 construct: purchased Millipore, Inc. (KinaseProfiler service)
Description: as §1

CDK9/cyclinT1 = target: T20, CDK9/cyclinT1 (Homo sapiens, UniProt P50750)
T20 construct: purchased Millipore, Inc. (KinaseProfiler service)
Description: as §1

PrKX = target: T21, PrKX (Homo sapiens, UniProt P51817)
T21 construct: purchased Millipore, Inc. (KinaseProfiler service)
Description: as §1

SIK = target: T22, SIK (Homo sapiens, UniProt P57059)
T22 construct: purchased Millipore, Inc. (KinaseProfiler service)
Description: as §1

Ron = target: T23, Ron (Homo sapiens, UniProt Q04912)
T23 construct: purchased Millipore, Inc. (KinaseProfiler service)
Description: as §1

IKKbeta = target: T24, IKKbeta (Homo sapiens, UniProt O14920)
T24 construct: purchased Millipore, Inc. (KinaseProfiler service)
T24 sequence (O14920 whole entry): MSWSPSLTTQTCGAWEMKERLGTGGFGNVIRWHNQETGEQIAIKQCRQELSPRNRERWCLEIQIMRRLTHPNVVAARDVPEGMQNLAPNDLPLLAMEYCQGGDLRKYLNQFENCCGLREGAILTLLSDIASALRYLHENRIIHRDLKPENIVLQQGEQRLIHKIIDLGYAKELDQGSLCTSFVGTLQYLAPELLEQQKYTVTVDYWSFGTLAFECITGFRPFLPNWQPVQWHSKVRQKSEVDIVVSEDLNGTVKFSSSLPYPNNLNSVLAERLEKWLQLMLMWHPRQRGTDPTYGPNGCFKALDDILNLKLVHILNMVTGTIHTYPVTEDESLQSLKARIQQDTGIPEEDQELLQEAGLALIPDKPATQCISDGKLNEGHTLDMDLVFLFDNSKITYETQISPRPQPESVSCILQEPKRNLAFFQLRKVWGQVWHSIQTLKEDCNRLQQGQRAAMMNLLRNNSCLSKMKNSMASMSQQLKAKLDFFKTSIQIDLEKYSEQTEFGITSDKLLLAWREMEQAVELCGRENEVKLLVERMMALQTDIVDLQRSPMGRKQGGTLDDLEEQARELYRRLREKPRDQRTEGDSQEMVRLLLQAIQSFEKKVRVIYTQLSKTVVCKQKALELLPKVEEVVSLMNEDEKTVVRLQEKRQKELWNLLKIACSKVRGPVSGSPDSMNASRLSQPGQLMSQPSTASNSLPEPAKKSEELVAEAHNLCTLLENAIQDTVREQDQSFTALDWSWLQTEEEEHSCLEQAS
Description: as §1

c-RAF = target: T25, c-RAF (Homo sapiens, UniProt P04049)
T25 construct: purchased Millipore, Inc. (KinaseProfiler service)
Description: as §1

DMPK = target: T26, DMPK (Homo sapiens, UniProt Q09013)
T26 construct: purchased Millipore, Inc. (KinaseProfiler service)
Description: as §1

CHK1 = target: T27, CHK1 (Homo sapiens, UniProt O14757)
T27 construct: purchased Millipore, Inc. (KinaseProfiler service)
Description: as §1

MINK = target: T28, MINK (Homo sapiens, UniProt Q8N4C8)
T28 construct: purchased Millipore, Inc. (KinaseProfiler service)
Description: as §1

JNK1alpha1 = target: T29, JNK1alpha1 (Homo sapiens, UniProt P45983)
T29 construct: purchased Millipore, Inc. (KinaseProfiler service)
T29 sequence (P45983 1-384 isoform P45983-2): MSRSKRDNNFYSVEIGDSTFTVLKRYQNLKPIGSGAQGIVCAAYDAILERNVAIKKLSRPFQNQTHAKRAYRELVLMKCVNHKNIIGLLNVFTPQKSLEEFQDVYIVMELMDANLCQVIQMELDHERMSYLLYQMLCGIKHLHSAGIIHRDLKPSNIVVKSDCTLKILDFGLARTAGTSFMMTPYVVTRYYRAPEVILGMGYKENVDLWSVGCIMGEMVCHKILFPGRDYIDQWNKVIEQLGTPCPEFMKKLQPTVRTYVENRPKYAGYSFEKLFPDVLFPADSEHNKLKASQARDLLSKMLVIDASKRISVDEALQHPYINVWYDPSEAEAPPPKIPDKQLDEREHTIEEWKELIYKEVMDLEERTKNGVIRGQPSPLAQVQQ
Description: as §1

EphA2 = target: T30, EphA2 (Homo sapiens, UniProt P29317)
T30 construct: purchased Millipore, Inc. (KinaseProfiler service)
T30 sequence (P29317 24-976): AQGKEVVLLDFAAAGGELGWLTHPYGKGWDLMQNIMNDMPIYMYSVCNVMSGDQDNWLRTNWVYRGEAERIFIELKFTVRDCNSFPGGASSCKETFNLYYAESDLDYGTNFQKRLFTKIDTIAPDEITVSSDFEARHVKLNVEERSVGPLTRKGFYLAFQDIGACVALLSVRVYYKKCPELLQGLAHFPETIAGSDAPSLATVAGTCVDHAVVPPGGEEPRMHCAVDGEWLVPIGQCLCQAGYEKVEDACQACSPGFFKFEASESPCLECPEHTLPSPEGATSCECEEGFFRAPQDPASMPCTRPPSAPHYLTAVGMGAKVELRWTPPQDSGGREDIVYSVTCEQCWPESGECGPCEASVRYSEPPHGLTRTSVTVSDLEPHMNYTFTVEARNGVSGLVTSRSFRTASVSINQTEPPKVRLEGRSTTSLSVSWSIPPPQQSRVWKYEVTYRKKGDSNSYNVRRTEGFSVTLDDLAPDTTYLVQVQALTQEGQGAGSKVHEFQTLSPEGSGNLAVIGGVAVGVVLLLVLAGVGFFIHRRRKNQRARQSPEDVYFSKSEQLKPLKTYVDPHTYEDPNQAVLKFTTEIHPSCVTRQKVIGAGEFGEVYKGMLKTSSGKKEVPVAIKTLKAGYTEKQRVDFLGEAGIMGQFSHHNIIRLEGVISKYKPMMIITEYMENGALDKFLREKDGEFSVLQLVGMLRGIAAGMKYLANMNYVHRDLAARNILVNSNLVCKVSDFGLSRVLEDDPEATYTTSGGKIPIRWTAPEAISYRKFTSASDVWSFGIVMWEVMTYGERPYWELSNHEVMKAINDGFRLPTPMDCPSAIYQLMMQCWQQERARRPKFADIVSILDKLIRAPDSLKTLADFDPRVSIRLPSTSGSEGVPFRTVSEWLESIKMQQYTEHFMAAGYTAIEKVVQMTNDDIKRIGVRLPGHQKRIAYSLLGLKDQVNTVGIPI
Description: as §1

ALK = target: T31, ALK (Homo sapiens, UniProt Q9UM73)
T31 construct: purchased Millipore, Inc. (KinaseProfiler service)
Description: as §1

CLK3 = target: T32, CLK3 (Homo sapiens, UniProt P49761)
T32 construct: purchased Millipore, Inc. (KinaseProfiler service)
Description: as §1

Haspin = target: T33, Haspin (Homo sapiens, UniProt Q8TF76)
T33 construct: purchased Millipore, Inc. (KinaseProfiler service)
T33 sequence (Q8TF76 whole entry): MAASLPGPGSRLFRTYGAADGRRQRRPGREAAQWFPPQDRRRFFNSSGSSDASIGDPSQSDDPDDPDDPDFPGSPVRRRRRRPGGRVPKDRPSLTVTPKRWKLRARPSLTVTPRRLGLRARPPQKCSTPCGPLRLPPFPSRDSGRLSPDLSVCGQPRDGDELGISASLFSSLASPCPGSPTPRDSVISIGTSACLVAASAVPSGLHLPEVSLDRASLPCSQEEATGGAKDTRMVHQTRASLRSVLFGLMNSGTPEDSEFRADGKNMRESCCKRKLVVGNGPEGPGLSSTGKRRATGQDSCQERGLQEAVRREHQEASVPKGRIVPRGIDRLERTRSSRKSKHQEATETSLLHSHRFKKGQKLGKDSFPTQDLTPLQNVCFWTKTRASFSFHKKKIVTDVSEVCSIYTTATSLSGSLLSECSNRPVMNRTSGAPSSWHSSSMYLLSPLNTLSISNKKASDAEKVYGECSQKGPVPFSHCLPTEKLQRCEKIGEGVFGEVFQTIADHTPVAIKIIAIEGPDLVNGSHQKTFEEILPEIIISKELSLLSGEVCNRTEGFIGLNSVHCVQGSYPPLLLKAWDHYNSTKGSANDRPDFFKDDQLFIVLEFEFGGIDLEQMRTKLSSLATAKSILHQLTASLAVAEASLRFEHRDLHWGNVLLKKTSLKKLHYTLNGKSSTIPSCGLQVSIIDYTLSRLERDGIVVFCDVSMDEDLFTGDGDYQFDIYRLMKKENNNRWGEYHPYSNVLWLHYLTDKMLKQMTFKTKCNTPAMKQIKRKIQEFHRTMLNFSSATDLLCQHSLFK
Description: as §1

SRPK2 = target: T34, SRPK2 (Homo sapiens, UniProt P78362)
T34 construct: purchased Millipore, Inc. (KinaseProfiler service)
T34 sequence (P78362 whole entry): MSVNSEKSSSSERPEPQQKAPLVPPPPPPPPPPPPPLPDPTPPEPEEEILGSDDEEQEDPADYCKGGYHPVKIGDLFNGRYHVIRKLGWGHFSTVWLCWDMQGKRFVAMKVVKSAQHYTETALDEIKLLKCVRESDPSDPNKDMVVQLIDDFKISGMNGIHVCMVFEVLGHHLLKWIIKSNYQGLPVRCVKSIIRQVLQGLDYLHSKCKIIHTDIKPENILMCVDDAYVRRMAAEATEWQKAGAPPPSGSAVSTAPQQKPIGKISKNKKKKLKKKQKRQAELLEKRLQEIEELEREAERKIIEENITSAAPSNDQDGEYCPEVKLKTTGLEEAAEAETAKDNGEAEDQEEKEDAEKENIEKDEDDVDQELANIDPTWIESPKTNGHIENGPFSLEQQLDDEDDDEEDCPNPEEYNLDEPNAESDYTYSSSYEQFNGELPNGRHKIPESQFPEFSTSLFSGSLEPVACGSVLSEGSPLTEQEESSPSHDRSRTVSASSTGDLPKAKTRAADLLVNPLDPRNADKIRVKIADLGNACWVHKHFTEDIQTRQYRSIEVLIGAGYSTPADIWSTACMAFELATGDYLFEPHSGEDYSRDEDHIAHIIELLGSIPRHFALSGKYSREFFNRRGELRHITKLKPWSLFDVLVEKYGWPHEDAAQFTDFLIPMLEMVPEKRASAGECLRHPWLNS
Description: as §1

IKKalpha = target: T35, IKKalpha (Homo sapiens, UniProt O15111)
T35 construct: purchased Millipore, Inc. (KinaseProfiler service)
Description: as §1

FGFR3 = target: T36, FGFR3 (Homo sapiens, UniProt P22607)
T36 construct: purchased Millipore, Inc. (KinaseProfiler service)
T36 sequence (P22607 23-806): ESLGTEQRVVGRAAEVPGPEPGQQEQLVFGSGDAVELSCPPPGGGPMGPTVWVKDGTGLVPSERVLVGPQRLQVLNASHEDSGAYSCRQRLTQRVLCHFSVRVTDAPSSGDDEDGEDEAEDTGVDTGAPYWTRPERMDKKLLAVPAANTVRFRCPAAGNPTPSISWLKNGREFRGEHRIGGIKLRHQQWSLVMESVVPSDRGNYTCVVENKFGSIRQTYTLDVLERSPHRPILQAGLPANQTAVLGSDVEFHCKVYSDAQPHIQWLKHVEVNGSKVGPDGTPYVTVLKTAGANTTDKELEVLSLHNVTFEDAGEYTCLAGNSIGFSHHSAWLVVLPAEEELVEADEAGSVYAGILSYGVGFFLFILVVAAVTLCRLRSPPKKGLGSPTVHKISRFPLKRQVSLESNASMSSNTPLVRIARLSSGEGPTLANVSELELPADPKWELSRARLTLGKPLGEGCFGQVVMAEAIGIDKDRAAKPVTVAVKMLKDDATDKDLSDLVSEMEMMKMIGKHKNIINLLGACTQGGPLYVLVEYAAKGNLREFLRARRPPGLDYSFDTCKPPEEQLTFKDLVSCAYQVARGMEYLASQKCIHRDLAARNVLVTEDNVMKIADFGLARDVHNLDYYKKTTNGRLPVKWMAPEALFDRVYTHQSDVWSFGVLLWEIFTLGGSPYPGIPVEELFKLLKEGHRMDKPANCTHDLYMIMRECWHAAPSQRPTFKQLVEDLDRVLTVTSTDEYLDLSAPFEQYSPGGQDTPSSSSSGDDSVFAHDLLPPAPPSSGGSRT
Description: as §1

JNK3 = target: T37, JNK3 (Homo sapiens, UniProt P53779)
T37 construct: purchased Millipore, Inc. (KinaseProfiler service)
Description: as §1

RIPK2 = target: T38, RIPK2 (Homo sapiens, UniProt O43353)
T38 construct: purchased Millipore, Inc. (KinaseProfiler service)
Description: as §1

EphA1 = target: T39, EphA1 (Homo sapiens, UniProt P21709)
T39 construct: purchased Millipore, Inc. (KinaseProfiler service)
Description: as §1

CSK = target: T40, CSK (Homo sapiens, UniProt P41240)
T40 construct: purchased Millipore, Inc. (KinaseProfiler service)
Description: as §1

EGFR = target: T41, EGFR (Homo sapiens, UniProt P00533)
T41 construct: purchased Millipore, Inc. (KinaseProfiler service)
Description: as §1

Avg POC (Rse): 102.5 POC
Avg POC (Plk2): 101 POC
Avg POC (MST1): 107.5 POC
Avg POC (TBK1): 114.5 POC
Avg POC (TSSK2): 108.5 POC
Avg POC (KDR): 102.5 POC
Avg POC (DCAMKL2): 135 POC
Avg POC (MRCKalpha): 90.5 POC
Avg POC (BrSK2): 104 POC
Avg POC (BTK): 114 POC
Avg POC (p38delta): 105 POC
Avg POC (TAO2): 100 POC
Avg POC (Ros): 112.5 POC
Avg POC (JNK2alpha2): 98.5 POC
Avg POC (DAPK1): 114 POC
Avg POC (PASK): 137.5 POC
Avg POC (TLK2): 101.5 POC
Avg POC (Bmx): 91.5 POC
Avg POC (CDK2/cyclinA): 94.5 POC
Avg POC (CDK9/cyclinT1): 112 POC
Avg POC (PrKX): 115.5 POC
Avg POC (SIK): 108 POC
Avg POC (Ron): 100 POC
Avg POC (IKKbeta): 104.5 POC
Avg POC (c-RAF): 101 POC
Avg POC (DMPK): 98.5 POC
Avg POC (CHK1): 109 POC
Avg POC (MINK): 105 POC
Avg POC (JNK1alpha1): 95 POC
Avg POC (EphA2): 92.5 POC
Avg POC (ALK): 89 POC
Avg POC (CLK3): 94.5 POC
Avg POC (Haspin): 96.5 POC
Avg POC (SRPK2): 96.5 POC
Avg POC (IKKalpha): 101.5 POC
Avg POC (FGFR3): 108 POC
Avg POC (JNK3): 114.5 POC
Avg POC (RIPK2): 90.5 POC
Avg POC (EphA1): 94.5 POC
Avg POC (CSK): 100 POC
Avg POC (EGFR): 95.5 POC
SMILES: COCCN1C[C@@H](NC(=O)Nc2c(C)c(-c3cnc(C)nc3)nn2-c2ccccc2)[C@H](c2cccc(F)c2)C1 [Compound 1, 1-((3S,4R)-4-(3-fluorophenyl)-1-(2-methoxyethyl)pyrrolidin-3-yl)-3-(4-methyl-3-(2-methylpyrimidin-5-yl)-1-phenyl-1H-pyrazol-5-yl)urea]
